{
  "source": "patent US20250204541A1",
  "about": "“GAS PHASE TREATMENT OF PRODUCE” (priority 2022, published 2025)",
  "key": {"[1]": {"test_system": "Penicillium italicum (Pi)", "test": "Antifungal activity of vapor against Penicillium italicum in wounded, infected mandarins", "assay_type": "in vivo", "conditions": "72 hours vapor of 3 mL in a Petri dish", "protocol": "Example 2. The antifungal activity of allyl isothiocyanate (AITC) and DADS vapor was tested against Pd and Penicillium italicum (Pi) in mandarins. All samples were wounded by puncturing with a screw. Mandarins were infected by dispensing either 1000 Pd spores or 1000 Pi spores suspended in 10 μL into the wound. The test groups consisted of mandarins that were: uninfected and untreated; uninfected and treated by dipping in a solution of 1 g/L of imazalil; infected with Pd and untreated; infected with Pd and exposed to AITC; infected with Pd and exposed to DADS; infected with Pi and untreated; infected with Pi and exposed to AITC; and infected with Pi and exposed to DADS. Exposure to AITC or DADS consisted of exposing the mandarins for 72 hours to the vapor of 3 mL of the respective compound dispensed in a Petri dish. […] DADS vapor reduced the incidence of Pd mold by 85% and Pi mold by 30% compared to the respective untreated/infected test groups. […] Both AITC and DADS were effective at preventing fungal growth. The inhibition from AITC was approximately 100%, with some changes in visible appearance."}, "avocados": {"test_system": "avocados", "test": "Durometer shore (ripening/firmness) of treated avocados", "assay_type": "in vivo", "conditions": "for average increase of durometer shore over the uninfected and untreated avocados: Example 22", "protocol": "Example 9. The antifungal activity of a range of AITC and carvacrol vapor exposure times was tested against Cg in avocados. To measure the effect of the various treatments on ripening, durometer shore was taken after 7 days of incubation at ambient temperature and high humidity. All samples were wounded by removing the stem and infected by dispensing 1000 Cg spores suspended in 10 μL of water in the wound. The test groups consisted of avocados that were: infected and left untreated on the benchtop; infected and left untreated under a fume hood; exposed to the vapor of 3 mL of AITC in a Petri dish for 24 hours, 48 hours, and 72 hours; and exposed to the vapor of 3 mL of carvacrol in a Petri dish for 72 hours. FIG. 11 quantifies the infection results. […] All exposure times to AITC vapor reduced the incidence of Cg mold compared to the untreated samples. A 24 hour AITC exposure reduced the incidence of Cg mold by 90%. A 48 hour AITC exposure reduced the incidence of Cg mold by 97%. A 72 hour AITC exposure reduced the incidence of Cg mold by 83%.\nExample 10. The antifungal activity of a range of AITC vapor exposure times were tested against Cg in avocados. To measure the effect of the various treatments on ripening, durometer shore was taken after 6 days of incubation at ambient temperature and high humidity. All samples were wounded by removing the stem and infected by dispensing 1000 Cg spores suspended in 10 μL of water in each wound. The test groups consisted of avocados that were: infected and left untreated on the benchtop; infected and left untreated in a fume hood; exposed to the vapor of 3 mL of AITC in a Petri dish for 24 hours, 48 hours, and 72 hours. FIG. 13 quantifies the infection results. […] All exposure times to AITC vapor reduced the incidence of Cg mold compared to the untreated samples.\nExample 21. The antifungal activity of avocados exposed to AITC vapor and prochloraz was tested against Cg in avocados. To measure the effect of the various treatments on ripening, durometer shore was taken after 5 days of incubation at ambient temperature (about 20° C. to about 25° C.) and high humidity (about 88% relative humidity to about 93% relative humidity). All samples were wounded by removing the stem and infected by dispensing 1000 Cg spores suspended in 10 μL of water in the wound. Exposure to vapor was done by placing the avocados in an airtight container, dispensing AITC onto Whatman filter paper discs, suspending the discs in front of a battery-powered fan, closing the container and incubating the avocados for 30 minutes. After vapor exposure, the avocados were left at ambient temperature, high humidity, and assessed for Cg mold on day 5. Treatment groups consisted of avocados that were: exposed for 30 minutes to the vapor of 125 μL of AITC disposed on a filter paper disc; dipped in a solution of 0.1 g/L of prochloraz and placed to dry on a rack in front of a fan for 30 min; infected and left untreated; and uninfected and untreated. […] To prepare the 0.1 g/L of prochloraz, 10 mg of prochloraz was mixed with 10 mL of ethanol and 90 mL of water. […] A 24 hour AITC exposure reduced the incidence of Cg mold by 90%. […] The mean shore value for the untreated avocados was 28.8 (standard deviation (SD)=10.8). The mean shore value for the infected avocados was 47.3 (SD=11.8). The mean shore value of the positive control, prochloraz treated avocados was 44.3 (SD=14.7). The mean shore value of the AITC treated avocados was 61.1 (SD=10.5).\nDurometer Shore Measurement: A Fruit Hardness Tester—HPE III Fff w/Sphere Ø 5.0 mm Test Anvil is used for the measurements. The Operating Procedure is as follows: • 1) At room temperature and 1 atm pressure, switch on the measuring device and press the hull or sleeve against the specimen so that the contact surface of the pressure plate rests on the fruit. […]"}},
  "data": [
    {"smiles": "C=CCN=C=S", "note": "[AITC, allyl isothiocyanate]", "values": [
      {"measurement": "inhibition of fungal growth", "setting": "[1]; mandarins infected with Pi", "value": "approximately 100%"},
      {"measurement": "effect on Pi infection", "setting": "[1]; mandarins", "value": "substantially prevented"},
      {"measurement": "average increase of durometer shore over the untreated avocados", "setting": "avocados; Example 9, Cg-infected avocados, all AITC treatments (3 mL, 24, 48, 72 hours), after 7 days, P value<0.0001", "value": 20.3, "unit": "shore"},
      {"measurement": "average increase of durometer shore over the infected avocados", "setting": "avocados; Example 10, Cg-infected avocados, all AITC treatments (3 mL, 24, 48, 72 hours), after 6 days, P value<0.005", "value": 15.4, "unit": "shore"},
      {"measurement": "higher durometer shore than the untreated avocados", "setting": "avocados; Example 21, Cg-infected avocados, 125 μL, 30 minutes, after 5 days", "value": "more than 30 shore"},
      {"measurement": "mean shore value", "setting": "avocados; Example 21, Cg-infected avocados, after 5 days, AITC 125 μL vapor 30 minutes, prochloraz 0.1 g/L dip", "value": "61.1 (SD=10.5) shore"},
      {"measurement": "average increase of durometer shore over the uninfected and untreated avocados", "setting": "avocados; Cg-infected avocados, 250 μL, 30 minutes, after 5 days, P value=0.0016", "value": "about 10 shore"},
      {"measurement": "average increase of durometer shore over the uninfected and untreated avocados", "setting": "avocados; Cg-infected avocados, 500 μL, 30 minutes, after 5 days, P value<0.0001", "value": "about 28.5 shore"},
      {"measurement": "average increase of durometer shore over the untreated avocados", "setting": "avocados; Example 23, avocados, after 11 days, coating agent 40 g/L dip, AITC vapor of 500 μL, P value<0.0001", "value": 22.5, "unit": "shore"}
    ]},
    {"smiles": "C=CCSSCC=C", "note": "[DADS, diallyl disulfide]", "values": [
      {"measurement": "reduction of the incidence of Pi mold compared to the untreated/infected test group", "setting": "[1]; mandarins", "value": 30, "unit": "%"}
    ]}
  ]
}
